One experiment concerns the target T1, c-Abl (Homo sapiens, UniProt P00519).
T1 construct: The His-tagged kinase domain of c-Abl is cloned and expressed in the baculovirus/Sf9 system; His; made in house; host or cells: baculovirus/Sf9
T1 sequence (P00519 242-493 limits assumed): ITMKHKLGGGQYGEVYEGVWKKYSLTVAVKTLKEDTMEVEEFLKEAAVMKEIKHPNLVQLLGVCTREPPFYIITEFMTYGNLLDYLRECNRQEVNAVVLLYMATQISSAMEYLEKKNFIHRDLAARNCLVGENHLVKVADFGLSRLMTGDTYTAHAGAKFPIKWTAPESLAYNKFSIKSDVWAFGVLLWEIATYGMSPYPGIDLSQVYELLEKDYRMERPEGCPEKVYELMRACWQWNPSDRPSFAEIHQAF
The experiment is described as follows: Test for activity against c-Abl protein tyrosine kinase (filter binding assay). In kind it is biochemical. As for the experimental part: Test for activity against c-Abl protein tyrosine kinase. The test is conducted as a filter binding assay as follows: The His-tagged kinase domain of c-Abl is cloned and expressed in the baculovirus/Sf9 system as described by Bhat et al., J Biol. Chem. 272, 16170-5 (1997). A protein of 37 kD (c-Abl kinase) is purified by a two-step procedure over a Cobalt metal chelate column followed by an anion exchange column with a yield of 1-2 mg/L of Sf9 cells. The purity of the c-Abl kinase is >90% as judged by SDS-PAGE after Coomassie blue staining. The assay contains: c-Abl kinase (50 ng), 20 mM Tris.HCl, pH 7.5, 10 mM MgCl2, 10 μM Na3VO4, 1 mM DTT and 0.06 μCi/assay [γ^33 P]-ATP (5 μM ATP) using 30 μg/mL poly-Ala,Glu,Lys,Tyr-6:2:5:1 (Poly-AEKY, Sigma P1152) in the presence of 1% DMSO, total volume of 30 μL. Reactions are terminated by adding 10 μL of 250 mM EDTA, and 30 μL of the reaction mixture is transferred onto Immobilon-PVDF membrane (Millipore, Bedford, Mass., USA) previously soaked for 5 min with methanol, rinsed with water, then soaked for 5 min with 0.5% H3PO4 and mounted on vacuum manifold with disconnected vacuum source. After spotting all samples, vacuum is connected and each well rinsed with 200 μL 0.5% H3PO4. Membranes are removed and washed on a shaker with 0.5% H3PO4 (4 times) and once with ethanol. Membranes are counted after drying at ambient temperature, mounting in Packard TopCount 96-well frame, and addition of 10 μL/well of Microscint™ (Packard).
(§1) Enzymatic (c-Abl, KDR, Flt3) in vitro inhibition data are presented as % inhibition at 10 μM. The measurements are made as described above in the general description.

Another experiment addresses KDR (Homo sapiens, UniProt P35968). The experiment is described as follows: Enzymatic KDR in vitro inhibition. In kind it is biochemical. As for the experimental part: Test for activity against VEGF-receptor tyrosine kinase. The test is conducted using Flt-1 VEGF-receptor tyrosine kinase. The detailed procedure is as follows: 30 μL kinase solution (10 ng of the kinase domain of Flt-1, Shibuya et al., Oncogene 5, 519-24 [1990]) in 20 mM Tris.HCl pH 7.5, 3 mM manganese dichloride (MnCl2), 3 mM magnesium chloride (MgCl2), 10 μM sodium vanadate, 0.25 mg/mL polyethylenglycol (PEG) 20000, 1 mM dithiothreitol and 3 μg/μL poly(Glu,Tyr) 4:1 (Sigma, Buchs, Switzerland), 8 μM [^33P]-ATP (0.2 μCi), 1% DMSO, and 0 to 100 μM of the compound to be tested are incubated together for 10 minutes at room temperature. The reaction is then terminated by the addition of 10 μL 0.25 M ethylenediaminetetraacetate (EDTA) pH 7. Using a multichannel dispenser (LAB SYSTEMS, USA), an aliquot of 20 μL is applied to a PVDF (=polyvinyl difluoride) Immobilon P membrane (Millipore, Bedford, USA), through a Gibco-BRL microtiter filter manifold and connected to a vacuum. Following complete elimination of the liquid, the membrane is washed 4 times successively in a bath containing 0.5% phosphoric acid (H3PO4) and once with ethanol, incubated for 10 minutes each time while shaking, then mounted in a Hewlett Packard TopCount Manifold and the radioactivity measured after the addition of 10 μL Microscint® (β-scintillation counter liquid). IC50-values are determined by linear regression analysis of the percentages for the inhibition of each compound in at least four concentrations (as a rule 0.01, 0.1, 1.0 and 10 μmol).
as §1

KDR, sequence (P35968 20-1356): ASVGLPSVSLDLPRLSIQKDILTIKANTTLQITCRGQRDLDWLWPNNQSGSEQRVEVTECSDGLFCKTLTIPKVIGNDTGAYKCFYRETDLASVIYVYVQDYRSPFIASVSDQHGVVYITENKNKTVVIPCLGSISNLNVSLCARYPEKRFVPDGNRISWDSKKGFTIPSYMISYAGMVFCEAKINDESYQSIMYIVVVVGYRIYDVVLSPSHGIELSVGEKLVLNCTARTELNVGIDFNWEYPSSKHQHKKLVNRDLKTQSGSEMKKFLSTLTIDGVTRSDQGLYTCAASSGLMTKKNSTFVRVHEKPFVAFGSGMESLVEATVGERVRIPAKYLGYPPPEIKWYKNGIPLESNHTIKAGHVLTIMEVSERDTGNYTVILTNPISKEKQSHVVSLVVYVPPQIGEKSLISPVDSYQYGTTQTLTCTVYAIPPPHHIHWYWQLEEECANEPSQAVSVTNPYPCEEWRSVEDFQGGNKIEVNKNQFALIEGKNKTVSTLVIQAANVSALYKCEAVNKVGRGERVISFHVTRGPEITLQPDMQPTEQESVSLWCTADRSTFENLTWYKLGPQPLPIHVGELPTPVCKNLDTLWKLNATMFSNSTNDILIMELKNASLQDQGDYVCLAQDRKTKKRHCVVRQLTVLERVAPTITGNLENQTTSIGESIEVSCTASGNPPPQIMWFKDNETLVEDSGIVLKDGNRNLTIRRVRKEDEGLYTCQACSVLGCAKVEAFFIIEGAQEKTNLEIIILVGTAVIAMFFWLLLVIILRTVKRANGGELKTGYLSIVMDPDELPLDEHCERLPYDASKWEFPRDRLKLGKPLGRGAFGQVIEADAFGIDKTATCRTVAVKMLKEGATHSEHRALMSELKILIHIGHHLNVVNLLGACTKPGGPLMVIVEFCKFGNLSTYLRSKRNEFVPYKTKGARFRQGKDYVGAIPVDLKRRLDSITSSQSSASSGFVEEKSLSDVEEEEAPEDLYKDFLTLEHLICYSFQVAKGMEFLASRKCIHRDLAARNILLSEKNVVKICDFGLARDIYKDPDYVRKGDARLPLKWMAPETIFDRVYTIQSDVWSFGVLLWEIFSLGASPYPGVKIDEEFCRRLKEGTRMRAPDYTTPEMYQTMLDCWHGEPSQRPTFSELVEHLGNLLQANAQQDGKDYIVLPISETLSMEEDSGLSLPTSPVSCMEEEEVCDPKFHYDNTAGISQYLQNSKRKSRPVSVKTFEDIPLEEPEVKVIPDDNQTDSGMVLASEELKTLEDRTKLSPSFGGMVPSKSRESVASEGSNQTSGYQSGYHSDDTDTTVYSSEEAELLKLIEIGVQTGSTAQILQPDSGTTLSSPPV

Usually inhibition stands for how much of the control response was suppressed. Take `CCOC(=O)Cc1csc(NC(=O)c2ccc(C)c(Nc3nccc(-c4cccnc4)n3)c2)n1` [Example 16, 2-[[4-Methyl-3-[[4-(3-pyridinyl)-2-pyrimidinyl]amino]benzoyl]amino]-4-thiazoleacetic acid ethyl ester]: the inhibition at 10 µM at c-Abl stood at 42%; against KDR it was 10%.

Regarding `Cc1ccc(C(=O)NCc2ccco2)cc1Nc1nccc(-c2cccnc2)n1` [Example 1, N-(2-Furanylmethyl)-4-methyl-3-[[4-(3-pyridinyl)-2-Pyrimidinyl]amino]benzamide], the inhibition at 10 µM on c-Abl came to 51%; at KDR it was 57%.

For the compound `Cc1ccc(C(=O)NC(c2ccccc2)c2ccccc2)cc1Nc1nccc(-c2cccnc2)n1` [Example 51, N-(Diphenylmethyl)-4-methyl-3-[[4-(3-pyridinyl)-2-pyrimidinyl]amino]benzamide], the inhibition at 10 µM is 92% at c-Abl and 52% at KDR.

Take `Cc1ccc(C(=O)N2CCN(C3CCCC3)CC2)cc1Nc1nccc(-c2cccnc2)n1` [Example 40, 1-Cyclopentyl-4-[4-methyl-3-[[4-(3-pyridinyl)-2-pyrimidinyl]amino]benzoyl]piperazine]: the inhibition at 10 µM on c-Abl worked out at 65%; against KDR, 78%.

Consider `COC(=O)CNC(=O)c1ccc(C)c(Nc2nccc(-c3cccnc3)n2)c1` [Example 27, N-[4-Methyl-3-[[4-(3-pyridinyl)-2-pyrimidinyl]amino]benzoyl]glycine methyl ester], for which the inhibition at 10 µM stood at 54% on c-Abl and 51% against KDR.

On to `Cc1ccc(C(=O)NCCN2CCNC2=O)cc1Nc1nccc(-c2cccnc2)n1` [Example 57, 4-Methyl-N-[2-(2-oxo-1-imidazolidinyl)ethyl]-3-[[4-(3-pyridinyl)-2-pyrimidinyl]amino]benzamide], for which the inhibition at 10 µM at c-Abl was determined as 8%; on KDR, 42%.

Take `Cc1ccc(C(=O)N2CCOCC2)cc1Nc1nccc(-c2cccnc2)n1` [Example 35, 4-[4-Methyl-3-[[4-(3-pyridinyl)-2-pyrimidinyl]amino]benzoyl]-morpholine]: the inhibition at 10 µM on c-Abl turned out to be 27%; against KDR it was 47%.

As for `CCOC(=O)N1CCN(C(=O)c2ccc(C)c(Nc3nccc(-c4cccnc4)n3)c2)CC1` [Example 43, 4-[4-Methyl-3-[[4-(3-pyridinyl)-2-pyrimidinyl]amino]benzoyl]-1-piperazinecarboxylic acid ethyl ester], the inhibition at 10 µM stood at 37% at c-Abl and 63% against KDR.

Regarding `COC(=O)CCNC(=O)c1ccc(C)c(Nc2nccc(-c3cccnc3)n2)c1` [Example 28, N-[4-Methyl-3-[[4-(3-pyridinyl)-2-pyrimidinyl]amino]benzoyl]beta-alanine methyl ester], the inhibition at 10 µM on c-Abl was 73%; on KDR, 61%.

Regarding `Cc1ccc(C(=O)N2CCN(CC(=O)N3CCCC3)CC2)cc1Nc1nccc(-c2cccnc2)n1` [Example 42, 1-[4-Methyl-3-[[4-(3-pyridinyl)-2-pyrimidinyl]amino]benzoyl]-4-[2-oxo-2-(1-pyrrolidinyl)ethyl]piperazine], the values for the inhibition at 10 µM at c-Abl and against KDR were 32% and 56%, respectively.

For the compound `Cc1ccc(C(=O)N2CCC(O)(c3ccccc3)CC2)cc1Nc1nccc(-c2cccnc2)n1` [Example 59, 1-[4-Methyl-3-[[4-(3-pyridinyl)-2-pyrimidinyl]amino]benzoyl]-4-phenyl-4-piperidinol], the figures for the inhibition at 10 µM at c-Abl and against KDR were 75% and 83%, respectively.

For the compound `COc1ccc(CCNC(=O)c2ccc(C)c(Nc3nccc(-c4cccnc4)n3)c2)cc1OC` [Example 15, N-[2-(3,4-Dimethoxyphenyl)ethyl]-4-methyl-3-[[4-(3-pyridinyl)-2-pyrimidinyl]amino]benzamide], the inhibition at 10 µM amounted to 60% at c-Abl and 23% against KDR.

As to `Cc1ccc(C(=O)N2CCC(N3CCCCC3)CC2)cc1Nc1nccc(-c2cccnc2)n1` [Example 46, 1′-[4-Methyl-3-[[4-(3-pyridinyl)-2-pyrimidinyl]amino]benzoyl]-1,4′-bipiperidine], the inhibition at 10 µM on c-Abl was 1%; against KDR, 43%.

For the compound `Cc1ccc(C(=O)Nc2cccc(C(=O)c3ccccc3)c2)cc1Nc1nccc(-c2cccnc2)n1` [Example 60, N-(3-Benzoylphenyl)-4-methyl-3-[[4-(3-pyridinyl)-2-pyrimidinyl]amino]benzamide], the values for the inhibition at 10 µM at c-Abl and against KDR were 79% and 36%, respectively.

On to `Cc1ccc(C(=O)N2CCC(NC(=O)c3ccccc3)CC2)cc1Nc1nccc(-c2cccnc2)n1` [Example 34, N-[1-[4-Methyl-3-[[4-(3-pyridinyl)-2-pyrimidinyl]amino]benzoyl]-4-piperidinyl]benzamide], for which the inhibition at 10 µM was 73% at c-Abl and 89% at KDR.

As to `Cc1ccc(C(=O)NCc2cc(C(C)(C)O)cc(C(F)(F)F)c2)cc1Nc1nccc(-c2cccnc2)n1` [Example 68, 4-Methyl-3-[[4-(3-pyridinyl)-2-pyrimidinyl]amino]-N-[[3-[(1-hydroxy-1-methyl-ethyl)]-5-(1,1,1-trifluoromethyl)phenyl]methyl]benzamide], the inhibition at 10 µM on c-Abl worked out at 99%; at KDR, 96%.

As to `Cc1ccc(C(=O)Nc2ccc(CN3CCN(C)CC3)cc2)cc1Nc1nccc(-c2cccnc2)n1` [Example 2, N-[4-Methyl-3-[[4-(3-pyridinyl)-2-pyrimidinyl]amino]benzoyl]-4-[(4-methyl-1-piperazinyl)methyl]benzeneamine], the inhibition at 10 µM on c-Abl was 97%; on KDR, 73%.

`Cc1ccc(C(=O)NCc2ccc(N(C)C)cc2)cc1Nc1nccc(-c2cccnc2)n1` [Example 25, N-[[4-(Dimethylamino)phenyl]methyl]-4-methyl-3-[[4-(3-pyridinyl)-2-pyrimidinyl]amino]benzamide]: the results for the inhibition at 10 µM at c-Abl and at KDR were 44% and 73%, respectively.

Turning to `CCOC(=O)Cc1ccc(NC(=O)c2ccc(C)c(Nc3nccc(-c4cccnc4)n3)c2)cc1` [Example 62, 4-[[4-Methyl-3-[[4-(3-pyridinyl)-2-pyrimidinyl]amino]benzoyl]amino]benzene-acetic acid ethyl ester], the values for the inhibition at 10 µM at c-Abl and against KDR were 59% and 44%, respectively.

As for `Cc1ccc(C(=O)NCc2ccc(C(F)(F)F)cc2)cc1Nc1nccc(-c2cccnc2)n1` [Example 54, 4-Methyl-3-[[4-(3-pyridinyl)-2-pyrimidinyl]amino]-N-[[4-(trifluoromethyl)phenyl]methyl]benzamide], the inhibition at 10 µM at c-Abl came out at 69%; on KDR, 74%.

Consider `Cc1ccc(C(=O)NCC2CCCO2)cc1Nc1nccc(-c2cccnc2)n1` (centres unmarked) [Example 11, 4-Methyl-3-[[4-(3-pyridinyl)-2-pyrimidinyl]amino]-N-[(tetrahydro-2-furanyl)methyl]benzamide], for which the inhibition at 10 µM at c-Abl was 53%; at KDR, 41%.

On to `Cc1ccc(C(=O)NCC(=O)OC(C)(C)C)cc1Nc1nccc(-c2cccnc2)n1` [Example 61, N-[4-Methyl-3-[[4-(3-pyridinyl)-2-pyrimidinyl]amino]benzoyl]-glycine 1,1-dimethylethyl ester], for which the inhibition at 10 µM on c-Abl stood at 95%; at KDR, 65%.
